Assay results reported in doi:10.1101/2023.12.06.570349v1 (biorxiv, 2023).
Where two headings read alike, the source gives them in different places.

Legend:
[1] = target: T1, H3R-365 (Homo sapiens, UniProt Q9Y5N1); assay: cell-based; design: species or system HEK293-EPAC stably expressing H3R isoform; conditions: for Emax: HEK293-EPAC stably expressing H3R isoform, read-out: H3R-365 α
[2] = target: T2, H3R-445 (Homo sapiens, UniProt Q9Y5N1); assay: cell-based; design: species or system HEK293-EPAC stably expressing H3R isoform; conditions: for Emax: HEK293-EPAC stably expressing H3R isoform, read-out: H3R-445 α
[3] = target: T3, H3R-453 (Homo sapiens, UniProt Q9Y5N1); assay: cell-based; design: species or system HEK293-EPAC stably expressing H3R isoform; conditions: for Emax: HEK293-EPAC stably expressing H3R isoform, read-out: H3R-453 α
[4] = target: T4, H3R-373 (Homo sapiens, UniProt Q9Y5N1, INS445KMKKKTCL); assay: cell-based; design: species or system HEK293-EPAC stably expressing H3R isoform; conditions: for Emax: HEK293-EPAC stably expressing H3R isoform, read-out: H3R-373 α
[5] = target: T4, H3R-373; design: species or system HEK293-EPAC stably expressing H3R isoform; conditions: agonist
[6] = target: T5, H3R-413 (Homo sapiens, UniProt Q9Y5N1, DEL274-305); assay: biochemical
[7] = target: T5, H3R-413; assay: cell-based; design: species or system HEK293-EPAC stably expressing H3R isoform; conditions: for Emax: HEK293-EPAC stably expressing H3R isoform, read-out: H3R-413 α
[8] = target: T6, H3R-415 (Homo sapiens, UniProt Q9Y5N1); assay: cell-based; design: species or system HEK293-EPAC stably expressing H3R isoform; conditions: for Emax: HEK293-EPAC stably expressing H3R isoform, read-out: H3R-415 α
[9] = target: T4, H3R-373
[10] = target: T2, H3R-445; assay: cell-based; design: species or system HEK293-EPAC stably expressing H3R isoform; conditions: HEK293-EPAC stably expressing H3R isoform, read-out: H3R-445 α
[11] = target: T6, H3R-415; assay: cell-based; design: species or system HEK293-EPAC stably expressing H3R isoform; conditions: HEK293-EPAC stably expressing H3R isoform, read-out: H3R-415 α
[12] = target: T1, H3R-365; assay: cell-based; design: species or system HEK293-EPAC stably expressing H3R isoform; conditions: HEK293-EPAC stably expressing H3R isoform, read-out: H3R-365 α
[13] = target: T4, H3R-373; design: species or system HEK293-EPAC stably expressing H3R isoform; conditions: inverse agonism, constitutive signaling; antagonist
[14] = target: T1, H3R-365; assay: cell-based; design: species or system HEK293-EPAC stably expressing H3R isoform
[15] = target: T6, H3R-415; assay: cell-based; design: species or system HEK293-EPAC stably expressing H3R isoform
[16] = target: T2, H3R-445; assay: cell-based; design: species or system HEK293-EPAC stably expressing H3R isoform
[17] = target: T6, H3R-415; assay: cell-based; design: species or system HEK293-EPAC stably expressing H3R isoform; remark: listed apart in the source
[18] = target: T5, H3R-413; assay: cell-based; design: species or system HEK293-EPAC stably expressing H3R isoform
[19] = target: T3, H3R-453; design: species or system HEK293-EPAC stably expressing H3R isoform; conditions: agonist

| SMILES | Emax [1] [%] | Emax [2] [%] | Emax [3] [%] | Emax [4] [%] | H3R-373 pEC50 [5] [M] | Ki [6] [nM] | Emax [7] [%] | Emax [8] [%] | Ki [9] [nM] | Emax [10] [%] | Emax [11] [%] | Emax [12] [%] | other results |
| --- | --- | --- | --- | --- | --- | --- | --- | --- | --- | --- | --- | --- | --- |
| NCCCCc1c[nH]cn1 [imbutamine, 4-(3H-imidazol-4-yl)butan-1-amine] | 90 ± 30 | 100 ± 10 | 120 ± 30 | 80 ± 10 | 9.5 ± 0.4 | 1.58 | 90 | 80 ± 10 | 0.398 | – | – | – | – |
| C[C@@H]1CCCN1CCc1cc2cc(-c3ccc(C#N)cc3)ccc2o1 [ABT-239, 4-[2-[2-[(2R)-2-methylpyrrolidin-1-yl]ethyl]-1-benzofuran-5-yl]benzonitrile] | – | – | – | – | – | – | – | – | – | -100 ± 20 | -50 ± 30 | -110 | – |
| CCNC(=O)C1CC(F)(c2ccc(CN3CCCC3)c(F)c2)C1 (centres unmarked) [PF-3654746, N-ethyl-3-fluoro-3-[3-fluoro-4-(pyrrolidin-1-ylmethyl)phenyl]cyclobutane-1-carboxamide] | – | – | – | – | – | 5.01 | – | – | 126 | -120 ± 40 | -110 ± 30 | -100 ± 10 | H3R-373 pEC50 [13]: 9.1 ± 0.4 M; EC50 [14]: 1 nM; EC50 [15]: 0.501 nM |
| c1ccc(COCCCc2c[nH]cn2)cc1 [proxyfan, 4-[3-(phenylmethoxy)propyl]-3H-imidazole] | 100 ± 10 | 90 ± 10 | 100 ± 20 | 80 ± 10 | 8.0 ± 0.0 | 5.01 | 90 ± 10 | 70 ± 10 | 1 | – | – | – | EC50 [16]: 7.94 nM; EC50 [17]: 15.8 nM; EC50 [18]: 31.6 nM; H3R-453 pEC50 [19]: 7.2 ± 0.4 M |
| N=C(NCc1ccc(Cl)cc1)SCCCc1c[nH]cn1 [clobenpropit, N’-[(4-chlorophenyl)methyl]-1-[3-(3H-imidazol-4-yl)propylsulfanyl]methanimidamide] | – | – | – | – | – | – | – | – | – | -100 ± 30 | -80 | -80 ± 10 | – |
| c1cc(Cc2cnc[nH]2)ccn1 [immethridine, 4-(3H-imidazol-4-ylmethyl)pyridine] | 110 ± 50 | 90 ± 20 | 110 ± 40 | 90 ± 10 | 10.1 ± 0.7 | 0.398 | 100 ± 10 | 70 ± 10 | 0.1 | – | – | – | – |
| CN1CCC(Cc2c[nH]cn2)CC1 [Methimepip] | – | – | – | – | – | – | – | – | – | – | – | – | H3R-365 α ([1]; relative to histamine, agonist): 0.8 ± 0.4%; H3R-445 α ([2]; relative to histamine, agonist): 1.0 ± 0.2%; H3R-453 α ([3]; relative to histamine, agonist): 1.1 ± 0.2%; H3R-373 α ([4]; relative to histamine, agonist): 0.8 ± 0.1%; H3R-413 α ([7]; relative to histamine, agonist): 1.0 ± 0.1%; H3R-415 α ([8]; relative to histamine, agonist): 0.8 ± 0.1%; EC50 [18]: 0.631 nM |
| CCCNC1CN(c2ccnc(N)n2)C1 [VUF16839, 4-(3-(Propylamino)azetidin-1-yl)pyrimidin-2-amine] | 70 ± 20 | 90 | 90 ± 30 | 60 ± 20 | – | 2 | 80 ± 20 | 50 ± 10 | 0.398 | – | – | – | EC50 [16]: 1 nM; H3R-453 pEC50 [19]: 8.0 ± 0.1 M |
